Numbering of substitutions follows the chain as printed. Read-outs that look alike come from different tables or passages of the source.
Assays:
5-HT1AR F112^3.28W [1] = molecular target: T1, 5-HT1AR F112^3.28W (Homo sapiens, UniProt P08908, F112W); assay: Radioligand competition, displacement of [3H]WAY100635; type: binding
T1 sequence (P08908 1-422 F112W): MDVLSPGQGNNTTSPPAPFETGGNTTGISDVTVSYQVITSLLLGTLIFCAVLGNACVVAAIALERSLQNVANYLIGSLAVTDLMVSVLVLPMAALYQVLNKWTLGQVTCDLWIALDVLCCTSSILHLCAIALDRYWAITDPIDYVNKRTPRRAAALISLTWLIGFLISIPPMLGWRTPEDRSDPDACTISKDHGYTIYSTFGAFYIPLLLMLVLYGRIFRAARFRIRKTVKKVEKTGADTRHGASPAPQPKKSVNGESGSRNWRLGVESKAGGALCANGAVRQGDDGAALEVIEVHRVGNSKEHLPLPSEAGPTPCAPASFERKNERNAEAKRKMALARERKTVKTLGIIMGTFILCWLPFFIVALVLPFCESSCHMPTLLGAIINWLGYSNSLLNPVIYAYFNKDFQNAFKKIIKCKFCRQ

5-HT2AR = molecular target: T2, 5-HT2AR (Homo sapiens, UniProt P28223); assay: Radioligand competition, displacement of [3H]ketanserin; type: binding
T2 construct: whole cells for IP-One
T2 sequence (P28223 whole entry): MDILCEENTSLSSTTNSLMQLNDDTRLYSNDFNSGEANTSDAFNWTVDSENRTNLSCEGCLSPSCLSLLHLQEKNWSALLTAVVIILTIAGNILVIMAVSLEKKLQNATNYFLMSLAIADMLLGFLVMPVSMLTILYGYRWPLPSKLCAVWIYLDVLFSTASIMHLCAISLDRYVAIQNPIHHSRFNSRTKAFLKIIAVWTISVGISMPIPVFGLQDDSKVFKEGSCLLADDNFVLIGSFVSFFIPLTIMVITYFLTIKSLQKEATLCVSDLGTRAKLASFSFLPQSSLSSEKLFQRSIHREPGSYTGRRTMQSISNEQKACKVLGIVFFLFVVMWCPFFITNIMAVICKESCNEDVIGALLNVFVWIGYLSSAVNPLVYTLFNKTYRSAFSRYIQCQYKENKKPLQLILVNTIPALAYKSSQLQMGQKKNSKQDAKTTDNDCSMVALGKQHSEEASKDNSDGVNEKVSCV

5-HT1AR = molecular target: T3, 5-HT1AR (Homo sapiens, UniProt P08908); assay: BRET-based cAMP assay (CAMYEL biosensor) in CHO-K1 cells; type: cell-based
T3 sequence (P08908 1-422): T1 sequence (P08908 1-422 F112W) with W112F

5-HT1AR F112^3.28W [2] = molecular target: T1, 5-HT1AR F112^3.28W; assay: GloSensor inhibition of cAMP accumulation in HEK293AΔGs; type: cell-based; settings: for Emax: read-out: Emax [% ± SEM], inhibition of cAMP accumulation
5-HT1AR Y96^2.64A [3] = molecular target: T4, 5-HT1AR Y96^2.64A (Homo sapiens, UniProt P08908, Y96A); assay: as above; type: cell-based; settings: for Emax: read-out: Emax [% ± SEM], inhibition of cAMP accumulation
T4 sequence (P08908 1-422 Y96A): T1 sequence (P08908 1-422 F112W) with Y96A, W112F

5-HT1AR Y96^2.64A [4] = molecular target: T4, 5-HT1AR Y96^2.64A; assay: GloSensor cAMP accumulation in HEK293AΔGi/o; type: cell-based; settings: read-out: Emax [% ± SEM], cAMP accumulation
5-HT1AR Q97^2.65A = molecular target: T5, 5-HT1AR Q97^2.65A (Homo sapiens, UniProt P08908, Q97A); assay: GloSensor cAMP accumulation in HEK293AΔGi/o; type: cell-based; settings: read-out: Emax [% ± SEM], cAMP accumulation
T5 sequence (P08908 1-422 Q97A): T1 sequence (P08908 1-422 F112W) with Q97A, W112F

male C56BL/6 mice [5] = assay: von Frey assay, hind paw mechanical thresholds; type: in vivo, mouse; settings: 10 mg/kg i.p., 30 min after injection
male C56BL/6 mice [6] = assay: 50°C tail flick; type: in vivo, mouse; settings: 10 mg/kg i.p.
male C56BL/6 mice [7] = assay: SNI model of neuropathic pain; type: in vivo, mouse

| Structure (SMILES) | Ki (5-HT1AR F112^3.28W [1]; 5-HT1AR F112W, HEK 293T membranes, read-out: Ki [nM ± SEM]) | Ki (5-HT2AR; 5-HT2A, read-out: pKi (converted)) | Ki (5-HT2AR; 5-HT2AR, HEK 293T membranes, read-out: Ki [nM ± SEM]) | Emax (5-HT1AR; CHO-K1, CAMYEL, PTX addition; read-out: Emax, cAMP effect in the presence of PTX) | Emax (5-HT1AR; CHO-K1, read-out: Emax [%±SEM], inhibition of cAMP accumulation) | EC50 (5-HT1AR; CHOK1, CAMYEL, wildtype; read-out: EC50 left [nM±SEM], inhibition of cAMP accumulation) | EC50 (5-HT1AR F112^3.28W [2]; HEK293AΔGs, F112W, read-out: EC50 [nM ± SEM], inhibition of cAMP accumulation) | Emax (5-HT1AR F112^3.28W [2]) | EC50 (5-HT1AR Y96^2.64A [3]; HEK293AΔGs, Y96A, read-out: EC50 [nM ± SEM], inhibition of cAMP accumulation) | Emax (5-HT1AR Y96^2.64A [3]) | Emax (5-HT1AR Y96^2.64A [4]) | Emax (5-HT1AR Q97^2.65A) | mechanical thresholds, von Frey (male C56BL/6 mice [5]) | response latency, 50°C tail flick (male C56BL/6 mice [6]) | mechanical thresholds of the injured hind paw, SNI model (male C56BL/6 mice [7]; 10 mg/kg intraperitoneal) | decrease in the binding affinity upon mutation of F112^3.28 to tryptophan (5-HT1AR F112^3.28W [1]; F112W vs WT) | Ki (5-HT2AR) | Emax (5-HT1AR; CHO-K1; read-out: Emax [%±SEM], inhibition of cAMP accumulation) | Esat [%±SEM], efficacy at saturating ligand concentrations (5-HT1AR; CHOK1, CAMYEL; relative to serotonin maximum inhibition) | mechanical allodynia, neuropathic pain model (male C56BL/6 mice [7]; lower, nonsedating doses (1 mg/kg)) |
| --- | --- | --- | --- | --- | --- | --- | --- | --- | --- | --- | --- | --- | --- | --- | --- | --- | --- | --- | --- | --- |
| COc1ccccc1OCCNCCCOc1ccc2c(c1)NC(=O)CO2 [ST171] | 0.16 nM | 260 nM | 280 ± 30 nM | < 5% | 87 ± 1% | 0.88 ± 0.3 nM | 2.2 ± 0.3 nM | 69 ± 8% | 14 ± 3.5 nM | 76 ± 2% | < 5% | < 5% | significantly increasing mechanical thresholds | antinociceptive | significantly increased the mechanical thresholds |  |  |  |  |  |
| Cc1ccc(CNCC2(F)CCN(C(=O)c3ccc(F)c(Cl)c3)CC2)nc1 [befiradol, reference compound] |  |  |  |  |  |  |  | 95 ± 5% |  | 104 ± 5% | 69 ± 5% | 60 ± 2% | significantly increasing mechanical thresholds | antinociceptive |  | 16 fold | 15000 nM | 91 ± 3% | 65 ± 4% | did not reverse the mechanical allodynia |
